What is called IC50 is the concentration that inhibits the measured activity by half. As a reminder, the LD50 is the dose at which mortality reaches 50%. Usually inhibition stands for how much of the control response was suppressed.

The record followed here is US4489091A, “Antilipemic and anti-inflammatory compositions containing sulfonate derivatives” (Taiho Pharmaceutical Company Limited, priority 1980, dated 1984).

One data set deals with esterase. As to the kind of experiment: Esterase inhibiting activity. In kind it is biochemical. The note with it: rat liver microsome esterase, methyl butyrate substrate, pH 8.0, 37° C., 60 minutes; read-out: IC50 for esterases. How it is done:
A 10 micromole quantity of methyl butyrate in a 50% ethanol solution is added as a substrate to a specified amount of buffer solution containing 0.1 mole of trishydrochloric acid (pH 8.0). To the mixture is further added a 50% ethanol solution of the compound of the invention, immediately followed by addition of an esterase solution prepared from a purified microsome fraction of the liver of a rat (adjusted to hydrolyze 9 micromoles of methyl butyrate at 37° C. in one hour) as an enzyme solution. The mixture is reacted at 37° C. for 60 minutes.
After the reaction, alkaline hydroxylamine is added to the mixture to form a hydroxamic acid derivative of methyl butyrate, and a ferric salt is added to the derivative. The resulting red color is colorimetrically determined (at a wavelength of 540 nm) to determine the amount of remaining methyl butyrate. The esterase inhibiting ratios of the present compound at least at three concentrations are plotted as ordinate, and the logarithms of the concentrations as abscissa to obtain a line, which gives the 50% inhibition concentration (IC50).
On the technique in general: Liver microsomes are vesicles of endoplasmic reticulum, rich in cytochrome P450 enzymes.

A further data set relates to cholesterol. The experiment in a line: Antilipemic effect: percent total cholesterol inhibition in plasma of rats given an olive oil-cholesterol mixture. It is filed as in vivo, male Wistar rats. To be noted: read-out: Anti-lipemic effect, CS (percent cholesterol inhibition). The gist of the method: (§1)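 Male Wistar rats, seven weeks old, 200 to 220 g, 5 per group, dosed orally at 100 or 200 mg/kg in olive oil-cholesterol mixture (15% cholesterol) at 10 ml/kg. Plasma triglycerides measured at 2 hours, total cholesterol at 8 hours, by enzymatic kits; percent inhibition calculated relative to vehicle control and untreated normal groups.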

Another data set deals with triglycerides. As to the kind of experiment: Antilipemic effect: percent triglycerides inhibition in plasma of rats given an olive oil-cholesterol mixture. It is filed as in vivo, male Wistar rats. To be noted: for inhibition in vivo at 100 mg/kg: read-out: Anti-lipemic effect, TG (percent triglycerides inhibition); for inhibition in vivo at 200 mg/kg: oral 200 mg/kg (asterisked values), read-out: Anti-lipemic effect, TG (percent triglycerides inhibition), asterisked; for TG (percent triglycerides inhibition), Table 3: dose not given. In outline: as §1

A further data set can be described thus: Acute toxicity. The note with it: rat, in vivo. The source says: Six-week-old male Wistar rats weighing 180 to 200 g are used, 5 rats in each group. Each compound of the invention is suspended in a 30% aqueous solution of polyethylene glycol 6000 and orally given to the rat at the dosage shown in Table 2. The animals are checked for poisoning, body weight and survival to determine the LD50 value.

A further data set concerns the target chymotripsin (Bos taurus, UniProt P00766). The experiment in a line: Chymotripsin inhibiting activity. It is filed as biochemical. The note with it: 0.5 h; compound 1×10^-4 mole, ATEE substrate, pH 8.0, 37° C.; read-out: Percent chymotripsin inhibition. How it is done: Chymotripsin (0.1 unit) serving as an enzyme solution is added to a specified quantity of buffer solution containing 0.1 mole of trishydrochloric acid (pH 8.0). To the mixture is further added a 50% ethanol solution of the compound of the invention so that the resulting mixture contains the compound in a concentration of 1×10^-4 mole. The mixture is reacted at 37° C. for 20 minutes.
On completion of the reaction, 10 micromoles of N-acetyl-L-thyrosine ethyl ester (ATEE) serving as a substrate is added to the mixture, and the resulting mixture is reacted at 37° C. for 30 minutes.
After the completion of the reaction, the amount of remaining ATEE is determined by the same hydroxamic acid method as above. The percent chymotripsin inhibition is given by [formula] wherein A is the amount of hydrolyzed esters in the reaction system not containing the compound of the invention, and B is the amount of hydrolyzed esters in the reaction system containing the present compound.

[1] abbreviates: oral 100 mg/kg, plasma 8 hours after dosing, Wistar rat.
Setting [2] is: oral 100 mg/kg, plasma 2 hours after dosing, Wistar rat.
Setting [3] is: oral, six-week-old male Wistar rats, suspended in 30% aqueous polyethylene glycol 6000, read-out: LD50.
The mark [4] stands for this setting: plasma 2 hours after dosing, Wistar rat.

Like-named read-outs stand apart in the source and are kept apart here. Some results are limits rather than exact numbers.

As to `CCCC(=O)COS(=O)(=O)CC` [Compound 1, 2-oxopentylethane sulfonate], on esterase, the IC50 stood at 12000 nM. For the same compound, the results for the inhibition in vivo at 100 mg/kg in the data set with cholesterol (setting [1]) and in the data set on triglycerides (setting [2]) were 89% and 92%, respectively. Also, the LD50 in “Acute toxicity” (setting [3]) was over 1000 mg/kg.
On to `CCCC(=O)COS(=O)(=O)c1ccc2ccccc2c1` [Compound 5], for which the half-inhibitory concentration (IC50) at esterase worked out at 3600 nM. Moreover, the inhibition at 100 µM on chymotripsin came to 17%. The values for the inhibition in vivo at 100 mg/kg with cholesterol (setting [1]) and with triglycerides (setting [2]) were 73% and 86%, respectively. The same compound gave an LD50 in “Acute toxicity” (po) of over 2500 mg/kg.
For `CCCCCC(=O)COS(=O)(=O)c1ccccc1` [Compound 8], in that order: 72 nM, 100%, 60%, 87% and over 2000 mg/kg.
In the same order, the values of `CCCCCCC(=O)COS(=O)(=O)c1ccccc1` [Compound 9] are 68 nM, 96%, 62%, 88% and over 3000 mg/kg.
As for `CCCCCCCCCC(=O)COS(=O)(=O)c1ccccc1` [Compound 10], the IC50 at esterase worked out at 7.6 nM. Moreover, on chymotripsin, the inhibition at 100 µM stood at 14%. In addition, the inhibition in vivo at 100 mg/kg amounted to 61% in the data set with cholesterol (Rattus norvegicus, po, 8 h) and 80% in the data set with triglycerides (Rattus norvegicus, po, 2 h). For the same compound, the LD50 in “Acute toxicity” (setting [3]) was over 3000 mg/kg.
Regarding `C=CCCC(=O)COS(=O)(=O)c1ccccc1` [Compound 14], on esterase, the IC50 turned out to be 520 nM. In addition, the inhibition at 100 µM at chymotripsin turned out to be 25%. Moreover, the inhibition in vivo at 100 mg/kg worked out at 62% in the data set on cholesterol (setting [1]) and 92% with triglycerides (setting [2]). Moreover, in “Acute toxicity” (po), the LD50 was over 2000 mg/kg.
For the compound `CCCCCC(=O)COS(=O)(=O)c1ccc(C)cc1` [Compound 18], the IC50 on esterase was found to be 1600 nM. Besides, at chymotripsin, the inhibition at 100 µM was 77%. For the same compound, the inhibition in vivo at 100 mg/kg with cholesterol (setting [1]) is 40%; with triglycerides (setting [2]), 94%. For the same compound, the LD50 in the data set “Acute toxicity” (po) is over 3000 mg/kg.
For the compound `Cc1ccc(S(=O)(=O)OCC(=O)CCCCCCC(C)C)cc1` [Compound 27], the IC50 at esterase worked out at 670 nM. Further, the inhibition at 100 µM at chymotripsin is 17%. For the same compound, the inhibition in vivo at 200 mg/kg with triglycerides (setting [4]) turned out to be 59%. In the data set “Acute toxicity” (po), this compound yielded an LD50 of over 3000 mg/kg.
For the compound `C=CCCCCCCCCC(=O)COS(=O)(=O)c1ccc(C)cc1` [Compound 28], the IC50 at esterase is 230 nM. For the same compound, the inhibition at 100 µM on chymotripsin amounted to 15%. For the same compound, in the data set with triglycerides (setting [4]), the inhibition in vivo at 200 mg/kg was 61%. The compound further returned a median lethal dose (LD50) in “Acute toxicity” (po) of over 3000 mg/kg.
For `CCCCCCCCCC(=O)COS(=O)(=O)c1ccc(OC)cc1` [Compound 38], in that order: 100 nM, 45%, 67% and over 4000 mg/kg.
Consider `CCCCCCCCCCCC(=O)COS(=O)(=O)c1ccc(O)cc1` [Compound 62], for which, on esterase, the half-maximal inhibitory concentration (IC50) came to 29 nM. Besides, the inhibition at 100 µM on chymotripsin is 93%. Further, the inhibition in vivo at 200 mg/kg with triglycerides (setting [4]) amounted to 72%. Besides, the LD50 in “Acute toxicity” (po) was over 3000 mg/kg.
On to `CCCCCC(=O)COS(=O)(=O)c1ccc(Cl)cc1` [Compound 66], for which the IC50 at esterase was determined as 2600 nM. Also, on chymotripsin, the inhibition at 100 µM came out at 100%. For the same compound, in the data set with triglycerides (setting [2]), the inhibition in vivo at 100 mg/kg amounted to 88%.
As for `CCCCCCCCCCC(=O)COS(=O)(=O)c1c(C)cc(C)cc1C` [Compound 80], the IC50 on esterase is 0.032 nM. Moreover, the inhibition at 100 µM on chymotripsin worked out at 55%. The inhibition in vivo at 200 mg/kg in the data set on triglycerides (setting [4]) is 63%. In addition, the LD50 in “Acute toxicity” (po) is over 4000 mg/kg.
For `CCCCCC(=O)COS(=O)(=O)c1c(C)c(C)cc(C)c1C` [Compound 90], the IC50 at esterase was determined as 2.6 nM. Besides, the inhibition at 100 µM on chymotripsin was 13%. Further, the inhibition in vivo at 200 mg/kg in the data set with triglycerides (setting [4]) worked out at 59%. The compound further had an LD50 in “Acute toxicity” (po) of over 3000 mg/kg.
Take `C=CCCCCCCCCC(=O)COS(=O)(=O)c1c(C)cc(C)c(C)c1C` [Compound 101]: the concentration for half-maximal inhibition (IC50) on esterase worked out at 30 nM. Further, the inhibition at 100 µM at chymotripsin was 23%. For the same compound, the inhibition in vivo at 200 mg/kg in the data set with triglycerides (setting [4]) was 54%. The same compound had an LD50 in “Acute toxicity” (po) of over 4000 mg/kg.
In the same order, the values of `CCOc1ccc(S(=O)(=O)OCC(=O)CCC(C)CC)cc1` (stereo not drawn) [Compound 143] are 2000 nM, 79%, 62% and over 4000 mg/kg.
Turning to `O=C(COS(=O)(=O)c1ccccc1)C1CCCCC1` [Compound 163], on esterase, the IC50 was 1600 nM. Further, on chymotripsin, the inhibition at 100 µM worked out at 13%.
As to `O=C(CCC1CCCCC1)COS(=O)(=O)c1ccccc1` [Compound 164, 2-oxo-4-cyclohexyl-butylbenzenesulfonate], at esterase, the IC50 was 2200 nM. Also, the inhibition at 100 µM on chymotripsin turned out to be 100%. In addition, in the data set on triglycerides, the “TG (percent triglycerides inhibition), Table 3” value turned out to be 98%.
For the compound `Cc1ccc(S(=O)(=O)OCC(=O)CC2CCCC2)cc1` [Compound 165], the concentration for half-maximal inhibition (IC50) on esterase was 4400 nM. Further, the inhibition at 100 µM on chymotripsin was determined as 90%.
Regarding `Cc1ccc(S(=O)(=O)OCC(=O)CC2CCCCC2)cc1` [Compound 166], at esterase, the IC50 is 3500 nM. On chymotripsin, the inhibition at 100 µM was determined as 98%.
For `Cc1ccc(S(=O)(=O)OCC(=O)CCC2CCCCC2)cc1` [Compound 167], the IC50 on esterase stood at 3100 nM. The inhibition at 100 µM on chymotripsin stood at 100%. Besides, the “TG (percent triglycerides inhibition), Table 3” value with triglycerides is 53%.
On to `Cc1cc(C)c(S(=O)(=O)OCC(=O)CC2CCCCC2)c(C)c1` [Compound 177], for which, at esterase, the IC50 turned out to be 200 nM. Besides, the inhibition at 100 µM at chymotripsin was 10%.
On to `O=C(COS(=O)(=O)c1ccc(Cl)cc1)C1CCCCC1` [Compound 179], for which the IC50 at esterase is 1500 nM. For the same compound, at chymotripsin, the inhibition at 100 µM was 32%.
For the compound `Cc1cc(C)c(S(=O)(=O)OCC(=O)C2CCOCC2)c(C)c1` [Compound 186], the IC50 on esterase is 32000 nM.
`Cc1ccc(S(=O)(=O)OCC(=O)CCc2ccccc2)cc1` [Compound 187]: on esterase, the half-maximal inhibitory concentration (IC50) came out at 14000 nM. In addition, the inhibition at 100 µM at chymotripsin came out at 100%. In the data set on triglycerides, the “TG (percent triglycerides inhibition), Table 3” value came to 94%.
Consider `O=C(CCc1ccccc1)COS(=O)(=O)c1ccc(Cl)cc1` [Compound 188], for which, on esterase, the IC50 came to 25000 nM. Also, on chymotripsin, the inhibition at 100 µM is 100%. Also, in the data set with triglycerides, the “TG (percent triglycerides inhibition), Table 3” value stood at 95%.
For `O=C(CCCCl)COS(=O)(=O)c1ccccc1` [Compound 193, 2-oxo-5-chloro-n-pentyl-benzene sulfonate], the IC50 at esterase came out at 820 nM. Also, the inhibition at 100 µM at chymotripsin was 46.8%.
In the same order, the values of `COCCCC(=O)COS(=O)(=O)c1ccccc1` [Compound 194] are 2400 nM and 3.2%.
`CC(=O)OCCCC(=O)COS(=O)(=O)c1ccccc1` [Compound 195]: the half-inhibitory concentration (IC50) at esterase is 26000 nM. Moreover, the inhibition at 100 µM at chymotripsin is 22.2%. The “TG (percent triglycerides inhibition), Table 3” value in the data set with triglycerides is given as 62%.
In the same order, the values of `COC(=O)CCCC(=O)COS(=O)(=O)c1ccccc1` [Compound 196] are 6800 nM, 65.3% and 77.9%.
Take `O=C(CCCCCNC(=O)OCc1ccccc1)COS(=O)(=O)c1ccccc1` [Compound 197]: the IC50 at esterase stood at 30000 nM. For the same compound, the inhibition at 100 µM at chymotripsin amounted to 47%.
For `CCOc1ccc(S(=O)(=O)OCC(=O)CCCC(=O)OC)cc1` [Compound 201, 2-oxo-5-methoxycarbonyl-n-pentyl-p-ethoxybenzene sulfonate], in that order: 170000 nM and 33%.
As to `COCCCC(=O)COS(=O)(=O)c1c(C)cc(C)cc1C` [Compound 205], the IC50 on esterase was 1500 nM. For the same compound, the inhibition at 100 µM on chymotripsin is 10%.
